Data taken from article PMC10287695, “Non-covalent inhibitors of thioredoxin glutathione reductase with schistosomicidal activity in vivo” (Nature Communications, 2023).
Values joined by “and” are separate entries in the source; they are usually repeats but may differ in a detail not shown here. Equal values may be shown once. Read-outs that look alike come from different tables or passages of the source.

Key:
[1] = Pharmacokinetics, intraperitoneal administration; format: in vivo, Swiss Webster mice; conditions: for Plasma concentration, single animal / concentration at 0 h / concentration at 0.5 h / concentration at 1 h / concentration at 2 h: IP; for Plasma concentration, single animal / concentration at 0 h / concentration at 0.5 h / concentration at 1 h / concentration at 2 h / concentration at 30 min / concentration at 60 min / concentration at 120 min / plasma concentration: 100 mg/kg; for concentration at 0 h / concentration at 0.5 h / concentration at 1 h / concentration at 2 h / concentration at 30 min / concentration at 60 min / concentration at 120 min / Cmax / half-life: male, Swiss Webster, mouse, plasma, ip; for concentration at 30 min / concentration at 60 min / concentration at 120 min / Cmax / half-life / overt toxicity / plasma concentration: mice; for Cmax: at 30 min; for half-life: estimated from the time points available
Protocol: All the mice were weighed and dosed intraperitoneally accordingly at 100 mg/kg body weight with freshly prepared 1 or 2.
Blood was collected by submandibular puncture into 1 mL Eppendorf tubes, the plasma was separated and stored in −80 °C until used. A 25 µl of mouse plasma was transferred into 1.5 ml centrifuge tube which was spiked with 2.5 µl of internal standard (IS) working standard solution […] to get final IS contraction of 250 ng/ml and the solution was vortexed. An aliquot of 75 µl of methanol/0.15 formic acid was added and gently vortexed for 2 min. The samples then centrifuged for 20 min at 4 °C and 15000 × g. A clear supernatant (50 µl) with added 50 µl mobile phase (reconstitution solution) from each extraction was then transferred into a 250 µl autosampler vial. A 3 µl aliquot of each sample was injected for LC-MSMS analysis.
The total run time of 2 min with an injection volume of 3 μl at column temperature 40 °C were efficient to achieve accepted results.
A Shimadzu LC20AD, Ultra Performance Liquid Chromatography (UPLC) system (Shimadzu Corporation, Kyoto, Japan) equipped with Shimadzu 8040 triple quadrupole (QqQ) mass analyzer (Shimadzu Corporation, Kyoto, Japan) with an electrospray ionization source (ESI) operated in the positive charge mode for the quantification of 1 and 2.

[2] = molecular target: T1, TGR (Schistosoma mansoni, UniProt Q962Y6); format: biochemical, S. mansoni; conditions: 6 hr preincubation
T1 construct: made in house
T1 sequence (Q962Y6 1-598): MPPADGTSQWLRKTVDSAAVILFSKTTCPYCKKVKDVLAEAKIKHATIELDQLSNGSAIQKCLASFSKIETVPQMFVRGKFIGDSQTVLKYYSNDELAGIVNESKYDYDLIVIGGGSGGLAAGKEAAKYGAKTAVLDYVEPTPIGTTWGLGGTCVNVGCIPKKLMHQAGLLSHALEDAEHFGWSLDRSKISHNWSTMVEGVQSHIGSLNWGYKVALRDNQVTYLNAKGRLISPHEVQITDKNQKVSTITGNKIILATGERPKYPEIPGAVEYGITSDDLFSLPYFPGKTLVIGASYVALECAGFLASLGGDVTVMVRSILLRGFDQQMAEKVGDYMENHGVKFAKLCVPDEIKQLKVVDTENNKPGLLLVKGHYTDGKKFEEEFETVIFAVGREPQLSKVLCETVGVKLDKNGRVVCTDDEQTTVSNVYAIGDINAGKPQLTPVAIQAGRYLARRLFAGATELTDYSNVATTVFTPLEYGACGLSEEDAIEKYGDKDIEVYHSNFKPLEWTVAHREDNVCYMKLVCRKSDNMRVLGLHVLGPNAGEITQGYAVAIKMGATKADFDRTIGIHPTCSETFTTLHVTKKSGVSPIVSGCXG

[3] = 0 Hour, read-out: Plasma concentration, Average
[4] = 0 Hour, read-out: Plasma concentration, single animal
[5] = 0.5 Hour, read-out: Plasma concentration, Average
[6] = 0.5 Hour, read-out: Plasma concentration, single animal
[7] = 1 Hour, read-out: Plasma concentration, Average
[8] = 1 Hour, read-out: Plasma concentration, single animal
[9] = 2 Hour, read-out: Plasma concentration, Average
[10] = 2 Hour, read-out: Plasma concentration, single animal

## Cc1oc(-c2ccc3c(c2)OCO3)nc1CN[C@@H]1C[C@@H]2C[C@H]([C@H]1C)C2(C)C [Compound 1]
[1]; 0 Hour, listed as 1 (8VP70)
  Plasma concentration, single animal: 0.000 uM (2×) and 0.000 ug/mL (2×)
[1]; 0.5 Hour, listed as 1 (8VP70)
  Plasma concentration, single animal: 4.093 uM and 4.069 uM and 1.508 ug/mL and 1.499 ug/mL
[1]; 1 Hour, listed as 1 (8VP70)
  Plasma concentration, single animal: 3.040 uM and 3.641 uM and 1.120 ug/mL and 1.342 ug/mL
[1]; 2 Hour, listed as 1 (8VP70)
  Plasma concentration, single animal: 2.409 uM and 2.589 uM and 0.888 ug/mL and 0.954 ug/mL
[1]; [3]
  concentration at 0 h: 0 nM and 0 ng/mL
[1]; [4]
  concentration at 0 h: 0 nM and 0 ng/mL
[1]; [5]
  concentration at 0.5 h: 4.11 µM and 1510 ng/mL
[1]; [6]
  concentration at 0.5 h: 4.16 µM and 1530 ng/mL
[1]; [7]
  concentration at 1 h: 3.28 µM and 1210 ng/mL
[1]; [8]
  concentration at 1 h: 3.16 µM and 1160 ng/mL
[1]; [9]
  concentration at 2 h: 2.35 µM and 865 ng/mL
[1]; [10]
  concentration at 2 h: 2.05 µM and 754 ng/mL
[1]; 100 mg/kg i.p., 30 min
  concentration at 30 min: 4.11 ± 0.047 µM
  plasma concentration: 4.1 µM
[1]; 100 mg/kg i.p., 60 min
  concentration at 60 min: 3.28 ± 0.318 µM
  plasma concentration: 3.3 µM
[1]; 100 mg/kg i.p., 120 min
  concentration at 120 min: 2.35 ± 0.277 µM
  plasma concentration: 2.4 µM
[1]; intraperitoneal, 30 min
  concentration at 30 min: 1510 ± 17 ng/mL
[1]; intraperitoneal, 60 min
  concentration at 60 min: 1210 ± 117 ng/mL
[1]; intraperitoneal, 120 min
  concentration at 120 min: 865 ± 102 ng/mL
[1]; 100 mg/kg i.p.
  Cmax: 4.1 µM
  half-life: ~1.5 h
  overt toxicity: no overt toxicity

## CCc1ccccc1-c1nc(CN[C@@H]2C[C@@H]3C[C@H]([C@H]2C)C3(C)C)c(C)o1 [Compound 2]
[1]; 0 Hour, listed as 2 (8VP101)
  Plasma concentration, single animal: 0.000 uM (2×) and 0.000 ug/mL (2×)
[1]; 0.5 Hour, listed as 2 (8VP101)
  Plasma concentration, single animal: 4.991 uM and 5.302 uM and 1.758 ug/mL and 1.868 ug/mL
[1]; 1 Hour, listed as 2 (8VP101)
  Plasma concentration, single animal: 4.630 uM and 3.814 uM and 1.631 ug/mL and 1.343 ug/mL
[1]; 2 Hour, listed as 2 (8VP101)
  Plasma concentration, single animal: 3.386 uM and 3.401 uM and 1.193 ug/mL and 1.198 ug/mL
[1]; [3]
  concentration at 0 h: 0 nM and 0 ng/mL
[1]; [4]
  concentration at 0 h: 0 nM and 0 ng/mL
[1]; [5]
  concentration at 0.5 h: 4.8 µM and 1690 ng/mL
[1]; [6]
  concentration at 0.5 h: 4.12 µM and 1450 ng/mL
[1]; [7]
  concentration at 1 h: 3.91 µM and 1520 ng/mL
[1]; [8]
  concentration at 1 h: 3.29 µM and 1600 ng/mL
[1]; [9]
  concentration at 2 h: 3.06 µM and 1080 ng/mL
[1]; [10]
  concentration at 2 h: 2.39 µM and 846 ng/mL
[1]; 100 mg/kg i.p., 30 min
  concentration at 30 min: 4.8 ± 0.612 µM
  plasma concentration: 4.8 µM
[1]; 100 mg/kg i.p., 60 min
  concentration at 60 min: 3.91 ± 0.674 µM
  plasma concentration: 3.9 µM
[1]; 100 mg/kg i.p., 120 min
  concentration at 120 min: 3.06 ± 0.578 µM
  plasma concentration: 3.0 µM
[1]; intraperitoneal, 30 min
  concentration at 30 min: 1690 ± 216 ng/mL
[1]; intraperitoneal, 60 min
  concentration at 60 min: 1520 ± 158 ng/mL
[1]; intraperitoneal, 120 min
  concentration at 120 min: 1080 ± 202 ng/mL
[1]; 100 mg/kg i.p.
  Cmax: 4.8 µM
  half-life: ~1.5 h
  overt toxicity: no overt toxicity

## Cc1oc(-c2ccccc2)nc1CN[C@@H]1C[C@@H]2C[C@H]([C@H]1C)C2(C)C [Compound 3]
[2]; 35 µM inhibitor
  Vmax: 0.011 ± 0.0002 ΔA412/min
[2]; 50 µM inhibitor
  Vmax: 0.0096 ± 0.0002 ΔA412/min
